In this test the target is Human Factor D (Homo sapiens (Human), UniProt P00746). The test is described as follows: Human Factor D Assay. The format is biochemical. The procedure: Human Factor D (purified from human serum, Complement Technology, Inc.) at 80 nM final concentration was incubated with test compound at various concentrations for 5 minutes at room temperature in 50 mM Tris, 1M NaCl, pH 7.5. A synthetic substrate Z-L-Lys-SBzl and DTNB (Ellman's reagent) are added to final concentrations of 100 μM each. […] IC50 values are calculated by nonlinear regression of complement Factor D reaction rates as a function of test compound concentration.
Chain of Human Factor D (P00746 26-253): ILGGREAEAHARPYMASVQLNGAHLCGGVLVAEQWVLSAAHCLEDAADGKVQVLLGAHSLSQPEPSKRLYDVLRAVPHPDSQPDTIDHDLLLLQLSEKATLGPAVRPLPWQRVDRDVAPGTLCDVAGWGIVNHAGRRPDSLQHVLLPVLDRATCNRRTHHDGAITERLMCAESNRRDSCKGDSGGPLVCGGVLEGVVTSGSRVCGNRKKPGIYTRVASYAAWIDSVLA

The mark [1] stands for this setting: Human Factor D 80 nM, substrate Z-L-Lys-SBzl, Table 3, read-out: IC5 (Stars).
The mark [2] stands for this setting: Human Factor D 80 nM, substrate Z-L-Lys-SBzl, star classes, read-out: IC50.

Read-outs that look alike come from different tables or passages of the source.

On to `Cc1cccc(NC(=O)[C@@H]2[C@H]3CC[C@H](C3)N2C(=O)Cn2cc(C(N)=O)c3cc(-c4ccc(F)nc4)ccc32)n1` [Compound 500, 5-(6-Fluoropyridin-3-yl)-1-(2-((1R,3S,4S)-3-(6-methylpyridin-2-ylcarbamoyl)-2-azabicyclo[2.2.1]heptan-2-yl)-2-oxoethyl)-1H-indole-3-carboxamide], for which the IC50 under setting [1] is over 10 µM.
For `CC(=O)c1nn(CC(=O)N2C[C@H](F)C[C@H]2C(=O)Nc2cccc(Br)n2)c2ccc(-c3cnc(S(C)(=N)=O)nc3)cc12` (stereo partly drawn) [Compound 732, (2S,4R)-1-(2-(3-Acetyl-5-(2-(S-methylsulfonimidoyl)pyrimidin-5-yl)-1H-indazol-1-yl)acetyl)-N-(6-bromopyridin-2-yl)-4-fluoropyrrolidine-2-carboxamide], the IC50 under setting [2] is under 1 µM.
On the same count and under the same terms, the same measure for `COc1ccc(N2C[C@@H]3CC[C@H]2C=C3c2ccc3c(c2)c(C(C)=O)nn3CC(=O)N2C[C@H](F)C[C@H]2C(=O)Nc2cccc(Br)n2)cc1` [Compound 721, (2S,4R)-1-(2-(3-Acetyl-5-((1S,4R)-2-(4-methoxyphenyl)-2-azabicyclo[2.2.2]oct-5-en-5-yl)-1H-indazol-1-yl)acetyl)-N-(6-bromopyridin-2-yl)-4-fluoropyrrolidine-2-carboxamide]: under 1 µM.
Turning to `CC(=O)c1nn(CC(=O)N2C[C@H](F)C[C@H]2C(=O)Nc2cccc(Br)n2)c2ccc(-c3nc4c(s3)CCCC4)cc12` [Compound 297], under “Human Factor D, assay of Example 8, read-out: IC50”, the IC50 was under 1 µM.
As to `CC(=O)c1nn(CC(=O)N2C[C@@H](C)C[C@H]2C(=O)Nc2nc(Br)ccc2C)c2ccc(-c3cnc(C)nc3)cc12` [Compound 643, (2S,4S)-1-(2-(3-Acetyl-5-(2-methylpyrimidin-5-yl)-1H-indazol-1-yl)acetyl)-N-(6-bromo-3-methylpyridin-2-yl)-4-methylpyrrolidine-2-carboxamide], the IC50 under setting [2] is under 1 µM.
`NC(=O)c1nn(CC(=O)N2CCC[C@]2(F)C(=O)Nc2cccnc2)c2ccc(-c3ccnnc3)cc12` [Compound 47, 1-(2-((2S,4R)-2-fluoro-2-(pyridin-3-ylcarbamoyl)pyrroli-din-1-yl)-2-oxoethyl)-5-(pyridazin-4-yl)-1H-indazole-3-carboxamide]: for the setting “Human Factor D 80 nM, substrate Z-L-Lys-SBzl, read-out: IC50”, the IC50 is over 10 µM.
For the compound `CC(=O)c1cn(CC(=O)N2C[C@H](F)C[C@H]2C(=O)NCc2ccncc2)c2ccc(-c3ccnnc3)cc12` [Compound 40, (2S,4R)-1-(2-(3-acetyl-5-(pyridazin-4-yl)-1H-indol-1-yl)acetyl)-4-fluoro-N-(pyridin-4-ylmethyl)pyrrolidine-2-carboxamide], the IC50 was 1 to 10 µM.
Turning to `CC(=O)c1nn(CC(=O)N2C[C@H](F)C[C@H]2C(=O)NC2CCN(C(=O)c3cn[nH]c3)CC2)c2ccc(-c3cnc(C)nc3)cc12` [Compound 261, (2S,4R)-N-(1-(1H-pyrazole-4-carbonyl)piperidin-4-yl)-1-(2-(3-acetyl-5-(2-methylpyrimidin-5-yl)-1H-indazol-1-yl)acetyl)-4-fluoropyrrolidine-2-carboxamide], the IC50 (read-out: IC50) was under 1 µM.
In the case of `Cc1cccc(NC(=O)[C@@H]2[C@H]3CC[C@H](C3)N2C(=O)Cn2cc(C(N)=O)c3cc(-c4n[nH]c5ccsc45)ccc32)n1` [Compound 704, 1-(2-((1R,3S,4S)-3-(6-Methylpyridin-2-ylcarbamoyl)-2-azabicyclo[2.2.1]heptan-2-yl)-2-oxoethyl)-5-(1H-thieno[3,2-c]pyrazol-3-yl)-1H-indole-3-carboxamide], the IC50 under setting [2] was over 10 µM.
For `Cc1cccc(C[C@H](O)[C@@H]2C[C@@H](F)CN2C(=O)Cn2cc(C(N)=O)c3cc(-c4cnc(C)nc4)ccc32)n1` [Compound 455, 1-(2-((2S,4R)-4-fluoro-2-((S)-1-hydroxy-2-(6-methylpyridin-2-yl)ethyl)pyrrolidin-1-yl)-2-oxoethyl)-5-(2-methylpyrimidin-5-yl)-1H-indole-3-carboxamide], the IC50 under setting [1] is over 10 µM.
On the same count and under the same terms, the same measure for `Cc1ncc(-c2ccc3c(c2)c([C@H](C)O)nn3CC(=O)N2[C@@H]3C[C@@H]3C[C@H]2C(=O)Nc2cccc(Br)n2)cn1` [Compound 409, (1R,3S,5R)—N-(6-Bromopyridin-2-yl)-2-(2-(3-((S)-1-hydroxyethyl)-5-(2-methylpyrimidin-5-yl)-1H-indazol-1-yl)acetyl)-2-azabicyclo[3.1.0]hexane-3-carboxamide]: under 1 µM.
Compound `CC(=O)c1nn(CC(=O)N2C[C@H](F)C[C@@H]2C(=O)Nc2nc(Br)ccc2C(=O)O)c2ccc(-c3cnc(C)nc3)cc12` [Compound 648, 2-((2R,4R)-1-(2-(3-Acetyl-5-(2-methylpyrimidin-5-yl)-1H-indazol-1-yl)acetyl)-4-fluoropyrrolidine-2-carboxamido)-6-bromonicotinic acid] came in with an IC50 of 1 to 10 µM.
For `CC(=O)c1nn(CC(=O)N2[C@H]3CC[C@H](CC3)[C@H]2C(=O)Nc2cccc(Br)n2)c2ccc(-c3cnc(C)nc3)cc12` [Compound 734, (1R,3S,4R)-2-(2-(3-Acetyl-5-(2-methylpyrimidin-5-yl)-1H-indazol-1-yl)acetyl)-N-(6-bromopyridin-2-yl)-2-azabicyclo[2.2.2]octane-3-carboxamide], the IC50 under setting [2] was under 1 µM.
